Experimental data taken from US10253002B2, “Compounds and methods of treating infections” (Neoculi Pty Ltd., priority 2013, dated 2019).
Values after ≈ are worked out from the molar mass of the structure shown. Values joined by “and” are separate entries in the source; they are usually repeats but may differ in a detail not shown here. Identical values can stand only once. Like-named read-outs stand apart in the source and are kept apart here.

Key:
VRE = assay: Broth microdilution MIC, Example 7 (NCL812 and analogues); type: cell-based, Enterococcus spp.; conditions: for MIC: Enterococcus, VRE
Procedure, shortened: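 Isolates were tested in duplicate, with a third run if replicates differed by more than one two-fold dilution; inoculum purity was checked on sheep blood agar.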

Pseudomonas aeruginosa = assay: as above; type: cell-based; conditions: for MIC: Pseudomonas aeruginosa
Streptococcus pneumoniae = assay: Broth microdilution MIC (CLSI) in 4% LHB-CAMHB, Example 1; type: cell-based; conditions: Streptococcus pneumoniae, read-out: MIC
Protocol: The powder was dissolved in 10 mL DMSO and 1 mL volumes were aliquoted into eppendorf tubes and stored at -80° C. […] Serial dilutions were prepared in 96 well plates were set up in a safety cabinet according to methods standard in the art. Briefly: 90 μL of the working antibiotic solution was added to each well in Column 12 of the plate, and mixed well, before 90 μL was transferred to column 11. The solutions were mixed again, and then transferred to the next column as before, continuing the dilutions through to column 3. Mixing the well requires the pick up and expulsion of 90 μL in each well 3-4 times before picking up and transferring the 90 μL to the next well. […] The bacterial solution was placed into a sterile trough and 10 μL of bacterial solution added into wells 2 through to 12 on each required row (dilution of 1:10, with final concentration of bacteria in wells=5×10^5 CFU/mL). The tray was sealed and incubated at 37° C. for 18-24 h. The purity of bacterial suspension was confirmed by streaking out 50 μL of the 1:20 dilution onto a SBA plate, which was incubated for 37° C. for 18 h and examined. Viable counts were carried out to ensure that the correct concentration of bacteria and been added to the wells. […] The following day the number of colonies on the plates was counted and the average count in 100 μL obtained. The study was multiplied by 10 to obtain a viable bacterial count per mL. Minimum inhibitory concentrations (μg/mL) were determined using the broth microdilution method recommended by the Clinical and Laboratory Standards Institute (CLSI) (Methods for Dilution Antimicrobial Susceptibility Tests for Bacteria That Grow Aerobically; Approved Standard-Seventh Edition. CLSI M7-A7, 2006; Performance Standards for Antimicrobial Disk and Dilution Susceptibility Tests for Bacteria Isolated from Animals; Approved Standard-Second Edition. CLSI […]-A2, 2002; Performance Standards for Antimicrobial Susceptibility Testing; CLSI M2-A9, 2006). […] Bacterial growth (turbidity) in the wells with antimicrobial was compared with the amount of growth (turbidity) in the growth-control well (containing no antimicrobial). All isolates were tested in duplicate, if there was a difference of greater than one two-fold dilution in the results, the test was repeated a third time. The purity of the isolates was closely monitored during testing by subculturing the prepared bacterial inoculum onto SBA. Control organisms (Enterococcus faecalis strain ATCC 29212, S. aureus strain ATCC 29213 and S. pneumoniae strain ATCC 49619) were used throughout the testing to monitor quality control. […] The MIC50, MIC90 and MIC range (minimum and maximum) were calculated for each of the bacterial groups.

N=C(N/N=C/c1ccc(Cl)cc1)N/N=C/c1ccc(Cl)cc1 [NCL812, 1,3-bis[(E)-(4-chlorophenyl)methyleneamino]guanidine]
MIC (VRE; 24 h, read-out: MIC (μg/ml) at 24 hours, VRE 1, isolate VRE 1, 24 hours, 1st and 2nd replicate rows): 2 µg/mL (≈ 5.98 µM) | MIC (VRE; 24 h, read-out: MIC (μg/ml) at 24 hours, VRE 2, isolate VRE 2, 24 hours, 1st and 2nd replicate rows): 2 µg/mL (≈ 5.98 µM) | MIC (VRE; VRE 002 [H12c], Phase I, 1st, read-out: MIC): 4 µg/mL (≈ 12 µM) | MIC (VRE; VRE 002 [H12c], Phase I, 2nd, read-out: MIC): 4 µg/mL (≈ 12 µM) | MIC (VRE; VRE 002 [H12c], Phase II, 1st, read-out: MIC): 2 µg/mL (≈ 5.98 µM) | MIC (VRE; VRE 002 [H12c], Phase II, 2nd, read-out: MIC): 2 µg/mL (≈ 5.98 µM) | MIC (VRE; VRE 003 [H14t], Phase I, 1st, read-out: MIC): 2 µg/mL (≈ 5.98 µM) | MIC (VRE; VRE 003 [H14t], Phase I, 2nd, read-out: MIC): 2 µg/mL (≈ 5.98 µM) | MIC (VRE; VRE 003 [H14t], Phase II, 1st, read-out: MIC): 2 µg/mL (≈ 5.98 µM) | MIC (VRE; VRE 003 [H14t], Phase II, 2nd, read-out: MIC): 2 µg/mL (≈ 5.98 µM) | MIC (VRE; VRE 004 [H16c], Phase I, 1st, read-out: MIC): 4 µg/mL (≈ 12 µM) | MIC (VRE; VRE 004 [H16c], Phase I, 2nd, read-out: MIC): 4 µg/mL (≈ 12 µM) | MIC (VRE; VRE 004 [H16c], Phase II, 1st, read-out: MIC): 2 µg/mL (≈ 5.98 µM) | MIC (VRE; VRE 004 [H16c], Phase II, 2nd, read-out: MIC): 2 µg/mL (≈ 5.98 µM) | MIC (VRE; VRE 005 [H17c], Phase I, 1st, read-out: MIC): 2 µg/mL (≈ 5.98 µM) | MIC (VRE; VRE 005 [H17c], Phase I, 2nd, read-out: MIC): 2 µg/mL (≈ 5.98 µM) | MIC (VRE; VRE 005 [H17c], Phase II, 1st, read-out: MIC): 2 µg/mL (≈ 5.98 µM) | MIC (VRE; VRE 005 [H17c], Phase II, 2nd, read-out: MIC): 2 µg/mL (≈ 5.98 µM) | MIC (VRE; VRE 006 [H19t], Phase I, 1st, read-out: MIC): 2 µg/mL (≈ 5.98 µM) | MIC (VRE; VRE 006 [H19t], Phase I, 2nd, read-out: MIC): 2 µg/mL (≈ 5.98 µM) | MIC (VRE; VRE 006 [H19t], Phase II, 1st, read-out: MIC): 2 µg/mL (≈ 5.98 µM) | MIC (VRE; VRE 006 [H19t], Phase II, 2nd, read-out: MIC): 2 µg/mL (≈ 5.98 µM) | MIC (VRE; VRE 007 [H23c], Phase I, 1st, read-out: MIC): 4 µg/mL (≈ 12 µM) | MIC (VRE; VRE 007 [H23c], Phase I, 2nd, read-out: MIC): 4 µg/mL (≈ 12 µM) | MIC (VRE; VRE 007 [H23c], Phase II, 1st, read-out: MIC): 2 µg/mL (≈ 5.98 µM) | MIC (VRE; VRE 007 [H23c], Phase II, 2nd, read-out: MIC): 2 µg/mL (≈ 5.98 µM) | MIC (VRE; VRE 008 [H16c(dc)], Phase I, 1st, read-out: MIC): 4 µg/mL (≈ 12 µM) | MIC (VRE; VRE 008 [H16c(dc)], Phase I, 2nd, read-out: MIC): 4 µg/mL (≈ 12 µM) | MIC (VRE; VRE 008 [H16c(dc)], Phase II, 1st, read-out: MIC): 2 µg/mL (≈ 5.98 µM) | MIC (VRE; VRE 008 [H16c(dc)], Phase II, 2nd, read-out: MIC): 2 µg/mL (≈ 5.98 µM) | MIC (VRE; VRE 009 [H25c], Phase I, 1st, read-out: MIC): 4 µg/mL (≈ 12 µM) | MIC (VRE; VRE 009 [H25c], Phase I, 2nd, read-out: MIC): 4 µg/mL (≈ 12 µM) | MIC (VRE; VRE 009 [H25c], Phase II, 1st, read-out: MIC): 2 µg/mL (≈ 5.98 µM) | MIC (VRE; VRE 009 [H25c], Phase II, 2nd, read-out: MIC): 2 µg/mL (≈ 5.98 µM) | MIC (VRE; VRE 010 [H26c(w)], Phase I, 1st, read-out: MIC): 4 µg/mL (≈ 12 µM) | MIC (VRE; VRE 010 [H26c(w)], Phase I, 2nd, read-out: MIC): 4 µg/mL (≈ 12 µM) | MIC (VRE; VRE 010 [H26c(w)], Phase II, 1st, read-out: MIC): 2 µg/mL (≈ 5.98 µM) | MIC (VRE; VRE 010 [H26c(w)], Phase II, 2nd, read-out: MIC): 2 µg/mL (≈ 5.98 µM) | MIC (VRE; VRE 011 [H26c(dc)], Phase I, 1st, read-out: MIC): 2 µg/mL (≈ 5.98 µM) | MIC (VRE; VRE 011 [H26c(dc)], Phase I, 2nd, read-out: MIC): 4 µg/mL (≈ 12 µM) | MIC (VRE; VRE 011 [H26c(dc)], Phase II, 1st, read-out: MIC): 2 µg/mL (≈ 5.98 µM) | MIC (VRE; VRE 011 [H26c(dc)], Phase II, 2nd, read-out: MIC): 2 µg/mL (≈ 5.98 µM) | MIC (VRE; VRE 012 [H35t], Phase I, 1st, read-out: MIC): 2 µg/mL (≈ 5.98 µM) | MIC (VRE; VRE 012 [H35t], Phase I, 2nd, read-out: MIC): 2 µg/mL (≈ 5.98 µM) | MIC (VRE; VRE 012 [H35t], Phase II, 1st, read-out: MIC): 2 µg/mL (≈ 5.98 µM) | MIC (VRE; VRE 012 [H35t], Phase II, 2nd, read-out: MIC): 2 µg/mL (≈ 5.98 µM) | MIC (VRE; VRE 013 [H37c(w)], Phase I, 1st, read-out: MIC): 2 µg/mL (≈ 5.98 µM) | MIC (VRE; VRE 013 [H37c(w)], Phase I, 2nd, read-out: MIC): 2 µg/mL (≈ 5.98 µM) | MIC (VRE; VRE 013 [H37c(w)], Phase II, 1st, read-out: MIC): 2 µg/mL (≈ 5.98 µM) | MIC (VRE; VRE 013 [H37c(w)], Phase II, 2nd, read-out: MIC): 2 µg/mL (≈ 5.98 µM) | MIC (VRE; VRE 014 [H37c(g)], Phase I, 1st, read-out: MIC): 4 µg/mL (≈ 12 µM) | MIC (VRE; VRE 014 [H37c(g)], Phase I, 2nd, read-out: MIC): 4 µg/mL (≈ 12 µM) | MIC (VRE; VRE 014 [H37c(g)], Phase II, 1st, read-out: MIC): 2 µg/mL (≈ 5.98 µM) | MIC (VRE; VRE 014 [H37c(g)], Phase II, 2nd, read-out: MIC): 2 µg/mL (≈ 5.98 µM) | MIC (VRE; bioassay ranking, read-out: VRE): 1.75 µg/mL (≈ 5.24 µM) | MIC (μg/ml) at 24 hours, VRE 1 (VRE; isolate VRE 1, 24 hours, 1st and 2nd replicate rows): 2 µg/mL (≈ 5.98 µM) | MIC (μg/ml) at 24 hours, VRE 2 (VRE; isolate VRE 2, 24 hours, 1st and 2nd replicate rows): 2 µg/mL and 1 µg/mL | MIC (μg/ml) at 24 hours, P. aeruginosa (Pseudomonas aeruginosa; 24 hours, 1st and 2nd replicate rows): >128 µg/mL | MIC (Pseudomonas aeruginosa; 24 h, read-out: MIC (μg/ml) at 24 hours, P. aeruginosa, 24 hours, 1st and 2nd replicate rows): > 128 µg/mL | MIC (Pseudomonas aeruginosa; P. aeruginosa, 1st, read-out: MIC): > 128 µg/mL | MIC (Pseudomonas aeruginosa; P. aeruginosa, 2nd, read-out: MIC): > 128 µg/mL | MIC (Pseudomonas aeruginosa; read-out: MIC): > 128 µg/mL | MIC (Streptococcus pneumoniae; Strep. pneumoniae 3, Test 2): 2 µg/mL (≈ 5.98 µM) | MIC (Streptococcus pneumoniae; Strep. pneumoniae 16, Test 1): 0.5 µg/mL (≈ 1.5 µM) | MIC (Streptococcus pneumoniae; Strep. pneumoniae 16, Test 2): 1 µg/mL (≈ 2.99 µM)
